Test results as given in publication PMC10265666, “Lung SPLUNC1 Peptide Derivatives in the Lipid Membrane Headgroup Kill Gram-Negative Planktonic and Biofilm Bacteria” (Biomacromolecules, 2023).

System: Klebsiella pneumoniae, 24 clinical isolates and 1 lab strain
Assay type: cell-based
Settings: average over 25 K. pneumoniae substrains; 37 °C, 16 h, OD 570 nm; growth at 32 μM counted as 64 μM
Experimental: Minimum inhibitory concentration (MIC, defined as the minimum AMP concentration to prevent bacterial growth) and biofilm data were obtained by UV–vis spectroscopy using a BioTek Epoch 2 microplate reader.
K. pneumoniae substrains were grown overnight using 50 mL plastic conical tubes on a shaker platform at 37 °C. The following day, serial dilutions of the four SPLUNC1 peptides and LL-37 were tested against these 25 substrains of K. pneumoniae using a 96-well plate. […] Following the addition of the peptides at the tested concentrations from serial dilutions to the K. pneumoniae substrains, the plates were incubated at 37 °C for 16 h. Then, visible spectroscopy at λ = 570 nm was performed to determine the bacterial absorption in each well. Those wells with an optical density reading above a threshold value were deemed resistant to the peptide, while those that were below the threshold value were deemed sensitive to the peptide. The threshold value was determined using Gen5 software with the Di lab Growth Inhibition Assay protocol.
Average MICs and standard deviations were calculated by first averaging the absorbances as a function of AMP concentration in all of the bacterial strains from four total data sets. Then, the average MICs were determined from the averaged absorbances. The standard deviations of the MICs were calculated from each of the absorbances that were used to calculate the average. Then, the standard deviations were averaged across substrains for the graph. These procedures were used to obtain an average MIC with standard deviation across all 25 substrains for one peptide, in order to compare peptide efficacy. Typically, many more substrains are used to obtain an average MIC, so this average MIC may change if thousands of substrains are compared.

## CC[C@H](C)[C@H](NC(=O)[C@@H](NC(=O)[C@H](CO)NC(=O)[C@H](CCCCN)NC(=O)[C@@H](NC(=O)[C@H](CCCCN)NC(=O)CNC(=O)[C@H](Cc1c[nH]c2ccccc12)NC(=O)[C@@H](NC(=O)CNC(=O)CNC(=O)[C@@H](NC(=O)[C@H](Cc1c[nH]c2ccccc12)NC(=O)CNC(=O)[C@H](CCCCN)NC(=O)[C@@H](NC(=O)[C@H](CCCCN)NC(=O)[C@H](CCCCN)NC(=O)[C@H](Cc1ccccc1)NC(=O)[C@H](Cc1ccccc1)NC(=O)[C@H](CCCCN)NC(=O)[C@H](CCCCN)NC(=O)[C@@H](N)CC(C)C)C(C)C)C(C)C)C(C)C)C(C)C)C(C)C)C(=O)N[C@@H](CCCCN)C(=O)O (stereo in doubt) [A4-153]
  average MIC value: 18 µM
